From the supplement of paper PMC10307832

Experiments:
Assay in all cases: relative viability (nuclei count vs DMSO), 5 days (fraction); higher = more cells survive
[1] = compound: N=C1NC(=O)/C(=C/c2ccc(O)cc2)S1 [Mirin]
Summary of the method: (§1)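 Lung cancer cell lines in 1536-well plates were exposed by pinning to five library-drug doses (not always all listed) √10 apart, following an overnight hold at 37 °C. MetaXpress counted Hoechst-stained nuclei from 4× images taken after 5 days without medium change. Viability is the median ratio of treated-well to vehicle-well nuclei across plates. Plates required control CV below 25% and at least one doubling.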

[2] = compound: CCn1c(-c2nonc2N)nc2cnc(Oc3cccc(NC(=O)c4ccc(OCCN5CCOCC5)cc4)c3)cc21
Summary of the method: as §1

[3] = compound: CCC1=CN=CN=C1N2CCN(CC2)CC3=NC4=C(N3)C=C(C=C4)C(F)(F)F
Summary of the method: as §1

| Cell Line | relative viability ([1]; 0.25 µM) | relative viability ([1]; 0.7906 µM) | relative viability ([1]; 2.5 µM) | relative viability ([1]; 7.906 µM) | relative viability ([1]; 25 µM) | relative viability ([2]; 0.04 µM) | relative viability ([2]; 0.1265 µM) | relative viability ([2]; 0.4 µM) | relative viability ([2]; 1.265 µM) | relative viability ([2]; 4 µM) | relative viability ([3]; 0.04 µM) | relative viability ([3]; 0.1265 µM) | relative viability ([3]; 0.4 µM) | relative viability ([3]; 1.265 µM) | relative viability ([3]; 4 µM) |
| --- | --- | --- | --- | --- | --- | --- | --- | --- | --- | --- | --- | --- | --- | --- | --- |
| NCI-H1437 | 1 | 1.02 | 0.984 | 0.995 | 0.958 | 1.03 | 0.933 | 0.763 | 0.796 | 0.705 | 0.948 | 0.92 | 0.921 | 0.863 | 0.747 |
| NCI-H1563 | 1.03 | 1.21 | 0.995 | 0.942 | 0.951 | 0.853 | 0.872 | 0.868 | 0.86 | 0.778 | 0.956 | 0.965 | 0.953 | 0.9 | 1 |
| NCI-H1623 | 0.967 | 1.08 | 1.04 | 0.823 | 0.738 | 1.13 | 1.02 | 0.974 | 0.902 | 1.08 | 0.897 | 0.996 | 0.873 | 0.832 | 1.17 |
| NCI-H1648 | 1.04 | 0.726 | 1.09 | 0.552 | 0.709 | 1.27 | 1.34 | 0.982 | 1.35 | 0.875 | 0.916 | 0.664 | – | 1.1 | 0.611 |
| NCI-H1650 | 0.963 | 1.08 | 1 | 0.984 | 0.61 | 1.21 | 0.894 | 0.858 | 0.746 | 0.812 | 0.82 | 0.824 | 0.84 | 0.703 | 0.981 |
| NCI-H1651 | 0.962 | 0.973 | 1.03 | 0.866 | 0.918 | 1.05 | 1.01 | 0.826 | 0.7 | 0.648 | 1.08 | 0.961 | 0.978 | 0.909 | 0.988 |
| NCI-H1666 | 1.05 | 1.04 | 0.987 | 0.889 | 0.892 | 1.13 | 1.15 | 1.04 | 0.607 | 0.628 | 0.99 | 0.929 | 0.952 | 0.962 | 0.944 |
| NCI-H1703 | 1.07 | 0.925 | 0.966 | – | 0.83 | 1.02 | 0.809 | 0.616 | 0.635 | 0.41 | 0.953 | 0.914 | 0.819 | 0.73 | 0.968 |
| NCI-H1734 | 0.978 | 0.761 | 0.929 | 0.895 | 0.884 | 0.961 | 0.878 | 0.545 | 0.418 | 0.362 | 0.88 | 0.98 | 0.943 | 0.814 | 1.03 |
| NCI-H1755 | 1.03 | 1.01 | 1.01 | 1.02 | 1.13 | 1.02 | 0.913 | 0.71 | 0.627 | 0.577 | 1.05 | 0.937 | 0.978 | 0.872 | 1 |
| NCI-H1792 | 0.775 | 0.925 | 0.859 | 0.711 | 1.06 | 1.05 | 0.773 | 0.343 | 0.458 | 0.599 | 0.79 | 0.749 | 0.814 | – | 0.96 |
| NCI-H1793 | 1.1 | – | 0.987 | 0.914 | 0.826 | 0.897 | 0.838 | 0.526 | 0.587 | 0.483 | 0.894 | 0.796 | 0.702 | – | 0.796 |
| NCI-H1915 | 1 | – | 0.984 | 0.951 | 1.03 | 1.11 | 1.01 | 0.811 | 0.331 | 0.404 | 0.992 | 0.976 | 0.926 | 0.809 | 1.05 |
| NCI-H1944 | 0.979 | 0.952 | 0.971 | 0.898 | 0.625 | 0.977 | 0.946 | 0.577 | 0.576 | 0.336 | 1.11 | 0.929 | 0.847 | 0.652 | 0.852 |
| NCI-H1975 | 1.07 | 1.03 | 0.94 | 1.01 | 0.979 | 0.824 | 0.636 | 0.49 | 0.427 | 0.304 | 1.04 | 0.951 | 0.931 | 0.844 | 0.942 |
| NCI-H1993 | 0.914 | 0.75 | 1.08 | 0.941 | 0.879 | 0.985 | 0.878 | 0.603 | 0.793 | 0.82 | 0.968 | 0.921 | 0.809 | 0.916 | 0.945 |
| NCI-H2009 | 1.01 | 1.08 | 1.04 | 0.843 | 1.01 | 0.978 | 0.754 | 0.676 | 0.374 | 0.418 | 1.08 | 0.991 | 0.989 | 0.963 | 0.933 |
| NCI-H2023 | 1.01 | 0.937 | 0.958 | 0.975 | 0.86 | 1.13 | 0.964 | 0.743 | 0.508 | 0.419 | 1.03 | 0.914 | 0.917 | 0.858 | 1.03 |
| NCI-H2085 | 0.981 | 0.979 | 1.01 | 0.957 | 0.99 | 1.09 | 0.919 | 0.826 | 0.778 | 0.765 | 0.896 | 0.912 | 0.949 | 0.918 | 0.972 |
